Reference: patent US10669235B2, “Indole derivatives and their use as protein kinase inhibitors” (RESPIVERT LIMITED, priority 2016, dated 2020)
Counter-ions that a name gives are not always drawn. Like-named read-outs stand apart in the source and are kept apart here.

Experiments:
MRC5 cells = assay: Cell viability assay in MRC5 cells (MTT)
[1] = Pharmacokinetic measurements in rats (i.v., i.t., oral); assay type: in vivo; conditions: rat; for concentration at 0.1 h / concentration at 1.5 h / concentration at 6 h / concentration at 24 h / Kp at 0.1 h / Kp at 1.5 h / Kp at 6 h / Kp at 24 h: male, CD; for concentration at 0.1 h / concentration at 1.5 h / concentration at 6 h / concentration at 24 h: lung; for concentration at 0.1 h: read-out: lung concentration (nM) at time 0.1 h; for concentration at 1.5 h: read-out: lung concentration (nM) at time 1.5 h; for concentration at 6 h: read-out: lung concentration (nM) at time 6 h; for concentration at 24 h: read-out: lung concentration (nM) at time 24 h; for Kp at 0.1 h / Kp at 1.5 h / Kp at 6 h / Kp at 24 h: lung/plasma
PDGFRβ [2] = molecular target: T1, PDGFRβ (Homo sapiens (Human), UniProt P09619); assay: PDGFRβ enzyme inhibition (ADP-Glo assay); assay type: biochemical; conditions: mean, n = 2 (nintedanib n = 34)
T1 sequence (P09619 33-1106): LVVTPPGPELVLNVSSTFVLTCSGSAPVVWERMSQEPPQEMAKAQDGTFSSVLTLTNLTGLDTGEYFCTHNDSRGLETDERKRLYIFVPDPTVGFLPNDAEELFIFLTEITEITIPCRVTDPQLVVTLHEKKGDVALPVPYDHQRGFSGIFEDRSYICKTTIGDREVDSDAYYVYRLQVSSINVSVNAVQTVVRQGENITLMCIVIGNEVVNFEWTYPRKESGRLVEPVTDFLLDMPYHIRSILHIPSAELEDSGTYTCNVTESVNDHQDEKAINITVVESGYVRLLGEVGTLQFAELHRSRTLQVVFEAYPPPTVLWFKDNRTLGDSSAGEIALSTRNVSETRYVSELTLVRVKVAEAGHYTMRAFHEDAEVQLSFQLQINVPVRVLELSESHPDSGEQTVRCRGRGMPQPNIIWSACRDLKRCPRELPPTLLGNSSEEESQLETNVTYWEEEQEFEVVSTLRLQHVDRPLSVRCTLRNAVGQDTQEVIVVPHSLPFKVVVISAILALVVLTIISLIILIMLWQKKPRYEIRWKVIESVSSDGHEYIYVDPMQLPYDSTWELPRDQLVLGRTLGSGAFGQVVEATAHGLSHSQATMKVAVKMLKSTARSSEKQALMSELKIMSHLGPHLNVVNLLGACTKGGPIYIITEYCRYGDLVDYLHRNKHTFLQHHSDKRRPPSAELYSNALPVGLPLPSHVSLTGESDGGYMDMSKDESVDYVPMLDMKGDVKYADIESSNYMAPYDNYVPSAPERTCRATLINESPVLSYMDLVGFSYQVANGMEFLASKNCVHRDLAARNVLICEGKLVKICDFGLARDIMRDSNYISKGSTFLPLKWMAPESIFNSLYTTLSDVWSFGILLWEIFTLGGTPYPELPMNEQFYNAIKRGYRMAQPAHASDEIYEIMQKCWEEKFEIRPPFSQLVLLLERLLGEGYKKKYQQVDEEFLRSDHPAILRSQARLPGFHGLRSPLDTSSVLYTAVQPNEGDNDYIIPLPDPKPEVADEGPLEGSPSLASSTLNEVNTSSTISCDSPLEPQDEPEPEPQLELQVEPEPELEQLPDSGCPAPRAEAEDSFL

PAMPA permeability assay = assay type: in vitro ADME; conditions: pH 7, PAMPA
PDGFRβ [3] = molecular target: T1, PDGFRβ; assay: PDGF-BB induced phosphorylation of PDGFRβ in fibroblasts (MRC5, HTRF); assay type: cell-based; conditions: MRC5 cells, PDGFBB stimulation; read-out: PDGFBB-induced PDGFRβ phosphorylation in MRC5 cells (IC50)

In the case of `COC(=O)c1cc2c(cc1C)/C(=C(/Nc1ccc(C(=O)NCC3CCN(C)CC3)cc1)c1ccccc1)C(=O)N2` [Example 3, (Z)-Methyl 5-methyl-3-(((4-(((1-methylpiperidin-4-yl)methyl)carbamoyl)phenyl)amino)(phenyl)methylene)-2-oxoindoline-6-carboxylate, formate], the “Cell viability at 100 nM (%)” value (MRC5 cells; 100 nM) is reported as 88%, the “Cell viability at 300 nM (%)” value (MRC5 cells; 300 nM) is reported as 86.1% and the “Cell viability at 1000 nM (%)” value (MRC5 cells; 1000 nM) is reported as 79.5%. For the same compound, the concentration at 0.1 h ([1]; iv) was 761 nM, the concentration at 1.5 h ([1]; iv) was 700 nM and the concentration at 6 h ([1]; iv) was 321 nM. The concentration at 24 h ([1]; iv) was 135 nM, the concentration at 0.1 h ([1]; other: intra-tracheal) was 2600 nM and the concentration at 1.5 h ([1]; other: intra-tracheal) was 4990 nM. For the same compound, the concentration at 6 h ([1]; other: intra-tracheal) was 4680 nM, the concentration at 24 h ([1]; other: intra-tracheal) was 1860 nM and the Kp at 0.1 h ([1]; iv, read-out: lung/plasma ratio at time 0.1 h) was 38. The Kp at 1.5 h ([1]; iv, read-out: lung/plasma ratio at time 1.5 h) was 154, the Kp at 6 h ([1]; iv, read-out: lung/plasma ratio at time 6 h) was 120 and the Kp at 24 h ([1]; iv, read-out: lung/plasma ratio at time 24 h) was greater than 72. It also gave a Kp at 0.1 h ([1]; other: intra-tracheal, read-out: lung/plasma conc ratio at time 0.1 h) of 100, a Kp at 1.5 h ([1]; other: intra-tracheal, read-out: lung/plasma conc ratio at time 1.5 h) of 1910 and a Kp at 6 h ([1]; other: intra-tracheal, read-out: lung/plasma conc ratio at time 6 h) of 2150. For the same compound, the Kp at 24 h ([1]; other: intra-tracheal, read-out: lung/plasma conc ratio at time 24 h) was greater than 1000, the “Lung conc i.t./i.v. Ratio at time 0.1 h” value ([1]; 0.1 h) was 3 and the “Lung conc i.t./i.v. Ratio at time 1.5 h” value ([1]; 1.5 h) was 7. The “Lung conc i.t./i.v. Ratio at time 6 h” value ([1]; 6 h) was 15, the “Lung conc i.t./i.v. Ratio at time 24 h” value ([1]; 24 h) was 14 and the “BAL % administered dose at time 0.1 h” value ([1]; i.t. dose 0.1 (nintedanib 0.42), 0.1 h) was 14%. The “BAL % administered dose at time 1.5 h” value ([1]; i.t. dose 0.1 (nintedanib 0.42), 1.5 h) was 1.2%, the “BAL % administered dose at time 6 h” value ([1]; i.t. dose 0.1 (nintedanib 0.42), 6 h) was 0.7% and the “BAL % administered dose at time 24 h” value ([1]; i.t. dose 0.1 (nintedanib 0.42), 24 h) was 0.3%. The “BAL % administered dose at time 0.1 h” value ([1]; i.v. dose 0.1 (nintedanib 0.42), 0.1 h) was 0.1%, the “BAL % administered dose at time 1.5 h” value ([1]; i.v. dose 0.1 (nintedanib 0.42), 1.5 h) was 0.1% and the “BAL % administered dose at time 6 h” value ([1]; i.v. dose 0.1 (nintedanib 0.42), 6 h) was 0.03%. For the same compound, the “BAL % administered dose at time 24 h” value ([1]; i.v. dose 0.1 (nintedanib 0.42), 24 h) was 0.02%, the Ki (PDGFRβ [2]) was 6.86 nM and the recovery at 5 hr, 10 μM (PAMPA permeability assay) was 92.4%. The Papp at 5 h, 10 µM (PAMPA permeability assay; pH 7, 10 μM, 5 hr) was 0.00775 ×10⁻⁶ cm/s and the IC50 (PDGFRβ [3]) was 12.7 nM.
